Results reported in patent US10160748B2 (AbbVie Inc., priority 2015, dated 2018).
Like-named read-outs stand apart in the source and are kept apart here.

Target: TNFα trimer (Homo sapiens, UniProt P01375)
Test: TNFα FP Competitive Binding Assay
Conditions: read-out: TNF IC50
Procedure, shortened: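 Compounds in 12-point 1:3 series, final top 100 μM (2.0% DMSO) or 338 μM (3.4% DMSO), displace 1 nM fluorescent probe from 20 nM TNFα trimer. After 18-24 h incubation plus 1 h rt equilibration, background-subtracted polarization measured and curves fitted with variable slope.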

[1] = FP binding assay, 20 nM TNFα trimer, 1 nM OregonGreen488 probe

Chain of TNFα trimer (P01375 77-233 limits assumed): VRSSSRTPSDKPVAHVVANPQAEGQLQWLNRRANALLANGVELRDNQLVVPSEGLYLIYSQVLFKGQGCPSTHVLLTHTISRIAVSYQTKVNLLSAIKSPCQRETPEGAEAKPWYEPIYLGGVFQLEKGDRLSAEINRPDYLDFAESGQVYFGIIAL

Row | SMILES | IC50 [1] | IC50
1 | O=c1[nH]n(Cc2ccccc2OC(F)F)c2cc(-c3cnc(N4CCOCC4)nc3)ccc12 [Example 6.1, 1-(2-(difluoromethoxy)benzyl)-6-(2-morpholinopyrimidin-5-yl)-1H-indazol-3(2H)-one] | > 10000 nM | –
2 | C[C@@H]1CN(c2ncc(-c3ccc4c(=O)n(C)n([C@H](C)c5ccccc5F)c4c3)cn2)CCN1C(=O)CO (single isomer, unassigned) [Example 86] | 1000 to 10000 nM | –
3 | Cn1c(=O)c2ccc(-c3cnc(N4CC(CC(=O)O)C4)nc3)cc2n1Cc1ccccc1OC(F)F [Example 2.18] | > 10000 nM | –
4 | COc1c[nH]nc1Cn1cc(Cn2c3cc(-c4cnc(C(C)(C)O)nc4)ccc3c(=O)n2C)c(C(F)(F)F)c1 [Example #130, 6-(2-(2-Hydroxypropan-2-yl)pyrimidin-5-yl)-1-((1-((4-methoxy-1H-pyrazol-3-yl)methyl)-4-(trifluoromethyl)-1H-pyrrol-3-yl)methyl)-2-methyl-1H-indazol-3(2H)-one] | < 1000 nM | –
5 | Cn1c(=O)c2ccc(-c3cnc(N4CCNC(=O)C4)nc3)cc2n1Cc1c(Cl)cccc1Cl [Example 8.2] | 1000 to 10000 nM | –
6 | Cn1c(=O)c2ccc(-c3cnc(N4CCN5C(=O)N(CCO)C[C@H]5C4)nc3)cc2n1Cc1ccccc1OC(F)F [Example 35, (R)-7-(5-(1-(2-(Difluoromethoxy)benzyl)-2-methyl-3-oxo-2,3-dihydro-1H-indazol-6-yl)pyrimidin-2-yl)-2-(2-hydroxyethyl)hexahydroimidazo[1,5-a]pyrazin-3(2H)-one] | < 1000 nM | –
7 | Cn1c(=O)c2ccc(-c3cnc(C(C)(C)O)nc3)cc2n1Cc1cc(NCC(C)(C)O)ccc1Cl [Example 122, 1-(2-Chloro-5-((2-hydroxy-2-methylpropyl)amino)benzyl)-6-(2-(2-hydroxypropan-2-yl)pyrimidin-5-yl)-2-methyl-1H-indazol-3(2H)-one] | 1000 to 10000 nM | –
8 | Cn1c(=O)c2ccc(-c3cnc(N4CCN5C(=O)OC[C@@H]5C4)nc3)cc2n1Cc1ccccc1OC(F)F [Example 2.26] | < 1000 nM | –
9 | Cn1c(=O)c2ccc(-c3cnc(C(C)(C)O)nc3)cc2n1Cc1cc(Cc2ccn[nH]2)ccc1OC(F)F [Example #133, 1-(5-((1H-Pyrazol-5-yl)methyl)-2-(difluoromethoxy)benzyl)-6-(2-(2-hydroxypropan-2-yl)pyrimidin-5-yl)-2-methyl-1H-indazol-3(2H)-one] | < 1000 nM | –
10 | C[C@@H]1CN(c2ncc(-c3ccc4c(=O)n(C)n([C@@H](C)c5c(F)cccc5F)c4c3)cn2)CCN1C(=O)CO (single isomer, unassigned) [Example 58] | < 1000 nM | –
11 | CC(=O)N1CCN(c2ncc(-c3ccc4c(=O)n(C)n(Cc5cn(CCO)cc5C(F)(F)F)c4c3)cn2)C[C@H]1C [Example 64, (R)-6-(2-(4-Acetyl-3-methylpiperazin-1-yl)pyrimidin-5-yl)-1-((1-(2-hydroxyethyl)-4-(trifluoromethyl)-1H-pyrrol-3-yl)methyl)-2-methyl-1H-indazol-3(2H)-one] | < 1000 nM | –
12 | [2H]C([2H])([2H])n1c(=O)c2ccc(-c3cnc(N4CCN(C(=O)CO)[C@H](C)C4)nc3)cc2n1Cc1cc(C)ccc1OC(F)F [Example 62, (R)-1-(2-(Difluoromethoxy)-5-methylbenzyl)-6-(2-(4-(2-hydroxyacetyl)-3-methylpiperazin-1-yl)pyrimidin-5-yl)-2-(methyl-d3)-1H-indazol-3(2H)-one] | < 1000 nM | –
13 | Cn1c(=O)c2ccc(-c3cnc(N4CC(C(=O)O)C4)nc3)cc2n1Cc1ccccc1OC(F)F [Example 2.13] | > 10000 nM | –
14 | Cc1ccc(C#N)c(Cn2c3cc(-c4cnc(N5CCN6C(=O)NC[C@H]6C5)nc4)ccc3c(=O)n2C)c1 [Example 37, (S)-4-Methyl-2-((2-methyl-3-oxo-6-(2-(3-oxohexahydroimidazo[1,5-a]pyrazin-7(1H)-yl)pyrimidin-5-yl)-2,3-dihydro-1H-indazol-1-yl)methyl)benzonitrile] | 1000 to 10000 nM | –
15 | Cn1c(=O)c2ccc(-c3cnc(N4CCN5C(=O)NCC5C4)nc3)cc2n1Cc1ccccc1OC(F)F (stereo not shown) [Example 2.27, 7-(5-(1-(2-(Difluoromethoxy)benzyl)-2-methyl-3-oxo-2,3-dihydro-1H-indazol-6-yl)pyrimidin-2-yl)hexahydroimidazo[1,5-a]pyrazin-3(2H)-one] | < 1000 nM | –
16 | COCc1ccc(OC(F)F)c(Cn2c3cc(-c4cnc(N5CCN(C(C)=O)CC5)nc4)ccc3c(=O)n2C)c1 [Example 90, 6-(2-(4-Acetylpiperazin-1-yl)pyrimidin-5-yl)-1-(2-(difluoromethoxy)-5-(methoxymethyl)benzyl)-2-methyl-1H-indazol-3(2H)-one] | 1000 to 10000 nM | –
17 | Cn1c(=O)c2ccc(-c3cnc(NC4CCCCNC4=O)nc3)cc2n1Cc1ccccc1OC(F)F (stereo not shown) [Example 2.19] | 1000 to 10000 nM | –
18 | CC(=O)N1CCN(c2ncc(-c3ccc4c(=O)n(C)n(Cc5nc(C)ccc5C(F)(F)F)c4c3)cn2)[C@H](C)C1 [Example 74, (R)-6-(2-(4-Acetyl-2-methylpiperazin-1-yl)pyrimidin-5-yl)-2-methyl-1-((6-methyl-3-(trifluoromethyl)pyridin-2-yl)methyl)-1H-indazol-3(2H)-one] | < 1000 nM | –
19 | Cn1c(=O)c2ccc(-c3cnc(C(C)(C)O)nc3)cc2n1Cc1cc(NCc2cc[nH]n2)ccc1Cl [Example 43] | 1000 to 10000 nM | –
20 | Cn1c(=O)c2ccc(-c3cnc(N4CCOCC4)nc3)cc2n1Cc1ccccc1F [Example 1.15] | 1000 to 10000 nM | –
21 | COc1ncc(-c2ccc3c(=O)n(C)n(Cc4ccccc4OC(F)F)c3c2)cn1 [Example 5.4] | 1000 to 10000 nM | –
22 | Cc1ccc(C)c(Cn2c3cc(-c4cnc(N5CCOCC5)nc4)ccc3c(=O)n2C)c1 [Example 1.19] | < 1000 nM | –
23 | Cn1c(=O)c2ccc(-c3cnc(N4CCOCC4)nc3)cc2n1Cc1ccccc1 [Example 1.10] | 1000 to 10000 nM | –
24 | Cn1c(=O)c2ccc(-c3cnc(N4CCN5C(=O)NC[C@@H]5C4)nc3)cc2n1Cc1cc(CC#N)ccc1OC(F)F [Example 68, (R)-2-(4-(Difluoromethoxy)-3-((2-methyl-3-oxo-6-(2-(3-oxohexahydromidazo[1,5-a]pyrazin-7(1H)-yl)pyrimidin-5-yl)-2,3-dihydro-1H-indazol-1-yl)methyl)phenyl)acetonitrile] | < 1000 nM | –
25 | Cn1c(=O)c2ccc(-c3cnc(C(C)(C)O)nc3)cc2n1Cc1cc(NCc2cccnc2)ccc1Cl [Example 53, 1-(2-Chloro-5-((pyridin-3-ylmethyl)amino)benzyl)-6-(2-(2-hydroxypropan-2-yl)pyrimidin-5-yl)-2-methyl-1H-indazol-3(2H)-one] | 1000 to 10000 nM | –
26 | Cn1c(=O)c2ccc(-c3cnc(C(C)(C)O)nc3)cc2n1Cc1cn(Cc2cccnc2)cc1C(F)(F)F [Example #127] | < 1000 nM | –
27 | Cn1c(=O)c2ccc(-c3cnc(C(C)(C)O)nc3)cc2n1Cc1cc(Cc2cn[nH]c2)ccc1OC(F)F [Example 111, 1-(5-((1H-Pyrazol-4-yl)methyl)-2-(difluoromethoxy)benzyl)-6-(2-(2-hydroxypropan-2-yl)pyrimidin-5-yl)-2-methyl-1H-indazol-3(2H)-one] | < 1000 nM | –

Second part, the molecule after the results:

Row | IC50 [1] | IC50 | SMILES
28 | < 1000 nM | – | Cn1c(=O)c2ccc(-c3cnc(N4CCN5C(=O)OC[C@@H]5C4)nc3)cc2n1Cc1cc(CO)ccc1OC(F)F [Example 16.3, (S)-7-(5-(1-(2-(difluoromethoxy)-5-(hydroxymethyl)benzyl)-2-methyl-3-oxo-2,3-dihydro-1H-indazol-6-yl)pyrimidin-2-yl)tetrahydro-1H-oxazolo[3,4-a]pyrazin-3(5H)-one]
29 | 1000 to 10000 nM | – | CC(=O)N1CCC(Oc2cc(-c3ccc4c(=O)n(C)n(Cc5ccccc5OC(F)F)c4c3)ccn2)CC1 [Example 10.12]
30 | 1000 to 10000 nM | – | CC(c1ccccc1Cl)n1c2cc(-c3cnc(N4CCN(C(=O)CO)[C@H](C)C4)nc3)ccc2c(=O)n1C (stereo partly shown) [Example 28.4]
31 | 1000 to 10000 nM | – | Cn1c(=O)c2cc(F)c(-c3cnc(C(C)(C)O)nc3)cc2n1Cc1cc(Cn2cnnc2)ccc1OC(F)F [Example 26.5]
32 | < 1000 nM | – | CC(=O)N1CCN(c2ncc(-c3ccc4c(=O)n(C)n(Cc5cc(C)ccc5OC(F)F)c4c3)cn2)C[C@H]1CO [Example 22.10]
33 | 1000 to 10000 nM | – | CN(C)c1ncc(-c2ccc3c(=O)n(C)n(Cc4ccccc4OC(F)F)c3c2)cn1 [Example 10.15]
34 | 1000 to 10000 nM | – | Cc1cccc(C(C)n2c3cc(-c4cnc(N5CCN(C(=O)CO)[C@H](C)C5)nc4)ccc3c(=O)n2C)n1 (stereo partly shown) [Example 24.2]
35 | < 1000 nM | – | C[C@@H]1CN(c2ncc(-c3ccc4c(=O)n(C)n(Cc5ccccc5Cl)c4c3)cn2)CCN1C(=O)CO [Example 24.8]
36 | > 10000 nM | – | Cn1c(=O)c2ccc(-c3ccnc(N4CCOCC4)c3)cc2n1Cc1cccc(F)c1 [Example 11.1]
37 | < 1000 nM | – | Cc1ccc(OC(F)F)c(Cn2c3cc(-c4cnc(C(C)(C)O)nc4)c(F)cc3c(=O)n2C)c1 [Example 17.1]
38 | < 1000 nM | – | C[C@@H]1CN(c2ncc(-c3nc4c(cc3F)c(=O)n(C)n4Cc3ccccc3OC(F)F)cn2)CCN1C(=O)CO [Example 24.11]
39 | < 1000 nM | – | Cc1ccc(OC(F)F)c(Cn2c3cc(-c4cnc(N5CCN6C(=O)NC[C@H]6C5)nc4)ccc3c(=O)n2C)c1 [Example 15.1]
40 | < 1000 nM | – | Cc1ccc(OC(F)F)c(Cn2c3cc(-c4cnc(N5CCN(C(=O)CC#N)[C@H](C)C5)nc4)ccc3c(=O)n2C)c1 [Example 21.4]
41 | – | 1000 to 10000 nM | C[C@@H](O)CNc1ccc(Cl)c(Cn2c3cc(-c4cnc(C(C)(C)O)nc4)ccc3c(=O)n2C)c1 [Example 30.2]
42 | < 1000 nM | – | Cc1ccc(OC(F)F)c(Cn2c3cc(-c4cnc(C(C)(C)O)nc4C)c(F)cc3c(=O)n2C)c1 [Example 17.2]
43 | > 10000 nM | – | Cn1c(=O)c2ccc(-c3cnn(C4CCOCC4)c3)cc2n1Cc1cccc(F)c1 [Example 11.2]
44 | < 1000 nM | – | CC(C)[C@H](N)C(=O)OCC(=O)N1CCN(c2ncc(-c3ccc4c(=O)n(C)n(Cc5ccccc5OC(F)F)c4c3)cn2)C[C@H]1C [Example 14.12]
45 | < 1000 nM | – | Cc1cc2c(=O)n(C)n(Cc3ccccc3OC(F)F)c2cc1-c1cnc(N2CCOCC2)nc1 [Example 13.1]
46 | < 1000 nM | – | Cc1ccc(OC(F)F)c(Cn2c3cc(-c4ccnc(OC5CCOCC5)c4)ccc3c(=O)n2C)c1 [Example 22.13]
